Common to all, as to format: biochemical
The target of assay [1] is T1, htau40 (Homo sapiens, UniProt P10636).
T1 construct: polyhistidine; made in house
Put plainly: Tau aggregation: arachidonic acid-induced htau40 fibrillization, quantitative transmission electron microscopy. To be noted: for filament length distribution versus DMSO vehicle control: 3 hours at 37° C.; for IC50: N744 0.12-4.1 μM. Also on record: IC50 for inhibition of tau fibrillization relative to molar concentration of arachidonic acid: unit not given here. As to the method:
Tau Aggregation. Purified recombinant htau40 was polymerized as described previously (King et al., Biochemistry 38: 14851-14859 (1999); Wilson et al., Am. J. Pathol 150: 2181-2195 (1997); King et al., J. Neurochem 74: 1749-1757 (2000)). Under standard conditions, 4 μM (final concentration) htau40 was incubated with arachidonic acid in Assembly Buffer (10 mM 4-[2-hydroxyethyl]-1-piperazineethanesulfonic acid, 100 mM NaCl, and 5 mM DTT) at either room temperature or at 37° C. Fibrillization was induced by the addition of arachidonic acid (75-100 μM) and continued for 3 to 6 hours until analyzed by electron microscopy as described below. When present, N744 final concentration varied between 0.12 and 4.1 μM in aggregation assays. (N744 final concentration of up to 4.7 μM was used in disaggregation assays (see below)). Control reactions were normalized for DMSO vehicle, which was limited to no more than 5% (v/v) in all reactions.
(§1) Transmission Electron Microscopy. Aliquots (50 μl) of aggregation and disaggregation reactions were removed, fixed with glutaraldehyde (2%), and adsorbed (1 minute) onto 300 mesh formvar/carbon-coated copper grids (Electron Microscopy Sciences; Ft. Washington, Pa.). The resultant grids were washed with water, stained (1 minute) with 2% uranyl acetate (Electron Microscopy Sciences), washed again with water, blotted dry, and viewed in a Phillips CM 12 microscope operated at 65 kV. Three to five random images from each experimental condition were captured on film at 22,000× magnification, digitized, calibrated, and imported into Optimas 6.5.1 for quantitation of filament length and number as described previously (King et al., J. Neurochem 74: 1749-1757 (2000). An individual filament is defined as any object greater than 50 nm in its long axis. Filaments were counted manually. Filament counts are reported as an average±standard deviation for both total filament length and total filament number. Length distributions were quantified in 25 nm (assembly) or 50 nm (disassembly) wide bins.

The target in assay [2] is T2, htau40 filaments (Homo sapiens, UniProt P10636).
T2 construct: polyhistidine; made in house
Description: Tau disaggregation: preformed htau40 filaments, quantitative electron microscopy. As to the method:
Tau Disaggregation. Solutions of purified htau40 (4 μM) were polymerized under standard conditions as described above for 3.5 hours, then divided into two separate tubes. One tube received N744 at a final concentration of 4.7 μM, whereas the second tube received DMSO vehicle alone. Aliquots were removed from each sample after 0, 1, 3, 5, 9, 12, and 19 hours incubation and subjected to the electron microscopy assay described below. Control (no N744) reactions were normalized for DMSO vehicle, which was kept below 5.7% (v/v) in all reactions.
as §1
N744 Promotes tau Filament Disaggregation. […] To test this hypothesis, htau40 (4 μM) was polymerized with arachidonic acid (75 μM) over a 3.5 hour period after which time equal aliquots were treated with N744 (4.7 μM) or DMSO vehicle alone and filament numbers and lengths were measured over a 19 hour “chase” by electron microscopy. In the absence of N744, total htau40 filament length decreased 23±4% over this time period (FIG. 4). Because sample dilution was only 6% in the experimental paradigm, it appeared that DMSO alone destabilized tau filaments at these concentrations. In contrast, addition of N744 (4.7 μM) led to a more rapid decrease in total filament length so that 87±13% of total filament length was lost over the 19 hour time course. The initial rate of filament loss was well modeled as a first order decay (r^2=0.981; k=0.12±0.01 h^−1) under these conditions (FIG. 4).

Assay [3] has as its target T3, Aβ1-40 (Homo sapiens, UniProt P05067).
T3 construct: Human Aβ1-40 (Bachem; Philadelphia, Pa.); purchased Bachem
Put plainly: Aβ1-40 aggregation, turbidity at 400 nm. Conditions: Aβ1-40 20 μM, 4.1 μM N744, 5 hours. As to the method:
Aβ1-40 Aggregation. Aggregation was initiated by diluting the Aβ stock solution to 20 μM final concentration in aggregation buffer (150 mM NaCl, 10 mM 2-[N-morpholino]ethanesulfonic acid, pH 6.2; final volume 300 μl). Turbidity resulting from Aβ aggregation in the presence (4.1 μM final concentration) and absence of […] was monitored as a function of time in a Beckman DU640B spectrophotometer at 400 nm versus a DMSO vehicle blank (Snyder et al., Biophys 67: 1216-1228 (1994); Evans et al., Proc. Natl. Acad. Sci U.S.A. 92: 763-767 (1995)). Cuvettes were vortexed before each reading. […] Selectivity of tau Fibrillization Antagonism. […] To determine whether amyloid binding was accompanied by fibrillization inhibitory activity, the ability of […] to inhibit Aβ1-40 assembly was examined. In the absence of ligand, Aβ1-40 (20 μM) polymerized spontaneously after a lag of about 80 minutes.

Assay [4] addresses T4, amylin (Homo sapiens, UniProt P10997).
T4 construct: purchased Bachem
T4 sequence (P10997 34-70 limits assumed): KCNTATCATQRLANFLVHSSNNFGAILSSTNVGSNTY
Description: Amylin aggregation, qualitative electron microscopy. To be noted: amylin 50 μM, 4.1 μM N744, 24 hour period. As for the experimental part:
Amylin Aggregation. Aggregation was initiated by diluting the peptide in 10 mM Tris-HCl, pH 7.3 to a final concentration of 50 μM (Goldsbury et al., J. Struct. Biol. 130: 352-362 (2000)) in the presence or absence of 4.1 μM N744. Aliquots were removed after 0, 1, 3, 5, 7, and 24 hours and prepared for EM as described above.
The activity of N744 on another amyloid-forming protein, amylin (Goldsbury et al., J. Struct. Biol. 130: 352-362 (2000)), was also examined.

Setting [5] is: htau40 4 μM, arachidonic acid 75 μM, 3.5 hours at 37° C.

Where “and” joins values, the source holds several entries; their conditions need not be identical. Equal entries are not always repeated. Entries after “also recorded” stand apart in the source; their conditions may differ. Where two headings read alike, the source gives them in different places.

T1 sequence (P10636 1-441 isoform P10636-8): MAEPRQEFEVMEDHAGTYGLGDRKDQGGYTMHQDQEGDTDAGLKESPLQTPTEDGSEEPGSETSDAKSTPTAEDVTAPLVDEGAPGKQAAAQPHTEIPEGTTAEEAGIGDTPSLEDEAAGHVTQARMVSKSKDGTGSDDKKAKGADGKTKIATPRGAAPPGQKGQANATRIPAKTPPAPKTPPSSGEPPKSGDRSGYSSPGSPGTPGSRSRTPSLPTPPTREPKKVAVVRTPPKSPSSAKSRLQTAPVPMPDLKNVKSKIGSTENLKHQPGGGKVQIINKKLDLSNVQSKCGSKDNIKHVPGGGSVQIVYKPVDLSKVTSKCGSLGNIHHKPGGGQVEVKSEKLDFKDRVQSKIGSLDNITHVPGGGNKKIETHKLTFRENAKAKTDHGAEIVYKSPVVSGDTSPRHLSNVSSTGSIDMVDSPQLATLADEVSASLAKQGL
T2 sequence (P10636 1-441 isoform P10636-8): as above
T3 sequence (P05067 672-711 limits assumed): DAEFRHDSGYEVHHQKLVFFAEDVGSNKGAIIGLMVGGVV

Turning to `CCC(/C=C1\Sc2ccc(OC)cc2N1CCO)=C\c1sc2ccc(OC)cc2[n+]1CCO` [N744, 3-(2-hydroxyethyl)-2-[2-[[3-(2-hydroxyethyl)-5-methoxy-2-benzothiazolylidene]methyl]-1-butenyl]-5-methoxybenzothiazolium], in assay [1], the “IC50 for inhibition of tau fibrillization relative to molar concentration of arachidonic acid” value is under 0.01. The “tau fibrillization (total number or total length of filaments)” value in assay [1] (4.1 μM N744, about 1:1 with htau40 4 μM, arachidonic acid 75 μM) is “greatly inhibited”. The “filament length distribution versus DMSO vehicle control” value in assay [1] (N744 ≧1.2 μM, htau40 4 μM) is “significant shortening”; in assay [1] (low N744 concentrations (≦410 nM), htau40 4 μM), “did not differ significantly”. Besides, the “Hill slope, total filament length” value in assay [1] (setting [5]) was 1.84±0.14. The “Hill slope, total filament number” value in assay [1] (setting [5]) was determined as 1.61±0.10. Besides, the IC50 (in general, the point on the concentration scale where inhibition reaches its midpoint) in assay [1] (htau40 4 μM, arachidonic acid 75 μM, 3.5 hours at 37° C., read-out: IC50, inhibition of total filament length) was 294 nM and < 300 nM and ~300 nM; in assay [1] (htau40 4 μM, arachidonic acid 75 μM, 3.5 hours at 37° C., read-out: IC50, inhibition of total filament number) it was 272 ± 17 nM. In addition, the “net first order rate of filament loss, corrected for dilution and DMSO vehicle” value in assay [2] (4.7 μM N744, htau40 4 μM) was 0.10 ± 0.02 h⁻¹. Also, the “initial first order rate of decrease of total filament length” value in assay [2] (4.7 μM N744 added to filaments from htau40 4 μM, 19 hour chase) was 0.12 ± 0.01 h⁻¹. The “filament number per length bin relative to DMSO only control” value in assay [2] (19 hours, 4.7 μM N744, 50 nm bins) is recorded as “significantly fewer filaments in every bin”. For the same molecule, the “total filament length as % of vehicle only control” value in assay [2] (after 19 hours incubation with 4.7 μM N744) was determined as 13±2%. The “total filament length lost” value in assay [2] (over 19 hour time course, 4.7 μM N744) is reported as 87±13%. Further, in assay [3], the “effect on Aβ1-40 fibrillization” value is reported as “did not appreciably modulate the extent or half-life; also recorded: little effect”. Moreover, in assay [4], the “effect on amylin fibrillization” value is “did not interfere; also recorded: did not modulate”.

Values taken from patent US20090137643A1, “Methods for Inhibiting or Reversing Tau Filament Fibrillization” (priority 2003, published 2009).
